Assay results taken from ChEMBL document CHEMBL1201862, “PubChem BioAssay data set” (2004).
Active and inactive are the calls of the source.

Legend:
[1] = molecular target: Eukaryotic translation initiation factor 4H (Homo sapiens, UniProt Q15056); assay: eIF4H binding inhibition – biochemical, uHTS, fluorescence polarization, translation initiation inhibitor project, primary screen (AID 2012)
[2] = molecular target: 5-hydroxytryptamine receptor 1A (Homo sapiens, UniProt P08908); type: functional
[3] = molecular target: Polyadenylate-binding protein 1 (Homo sapiens, UniProt P11940); assay: blockers of PABP interaction with poly(A) – biochemical, fluorescence polarization, […] (AID 2014)
[4] = molecular target: T1, Carboxy-terminal domain RNA polymerase II polypeptide A small phosphatase 1 (Homo sapiens, UniProt Q9GZU7); assay: CTDSP1 inhibitors, concentration-response, biochemical, absorbance readout, ultra-high-throughput screen actives (AID 540297); type: functional
T1 sequence (Q9GZU7 whole entry): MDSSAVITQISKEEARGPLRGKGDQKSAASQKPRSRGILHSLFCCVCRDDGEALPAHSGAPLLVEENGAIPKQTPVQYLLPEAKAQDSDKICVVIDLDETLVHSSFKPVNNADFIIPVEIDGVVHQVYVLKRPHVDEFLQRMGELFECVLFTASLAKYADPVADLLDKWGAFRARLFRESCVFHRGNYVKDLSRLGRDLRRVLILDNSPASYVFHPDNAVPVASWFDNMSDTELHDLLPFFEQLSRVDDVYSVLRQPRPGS

[5] = M. tuberculosis growth inhibition, HTS (AID 449762); type: functional
Danio rerio = assay: In Vivo Angiogenesis Dose-Response Confirmation. [Related pubchem assays: 732 (Assay preceding this confirmatory assay.)]; type: functional, organism-based
[6] = molecular target: Peroxisome proliferator-activated receptor gamma/Nuclear receptor corepressor 2 (Homo sapiens, UniProt P37231+Q9Y618); assay: Counterscreen for NR2E3 inverse agonists: TR-FRET-based biochemical high throughput dose response assay to identify inverse agonists of the interaction between peroxisome proliferator-activated receptor gamma (PPARg) and nuclear receptor co-repressor 2 (NCOR2).; type: functional
[7] = molecular target: Photoreceptor-specific nuclear receptor (Homo sapiens, UniProt Q9Y5X4); assay: ligands suppressing NR2E3 nuclear receptor activity – biochemical, TR-FRET, dose response (AID 463256); type: functional
Genome polyprotein = Genome polyprotein (Hepatitis C virus, UniProt Q2Q167); assay: disruption of hepatitis C core self-association – biochemical, TR-FRET, dose response (AID 2159); set-up: species or system Hepacivirus hominis;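 note: blocks dimerization of HCV core protein measured by TR-FRET between tagged core106 pairs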
H9c2 = assay: cells; type: functional, cell-based; details: Rattus norvegicus, H9c2, Myocardium;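 note: confirmatory concentration-response retest of ultra-high-throughput screening hits for modulation of myocardial damage; cell death induced by hydrogen peroxide oxidative stress; compound pretreatment for 60 min then peroxide exposure for 2 h; potency is for protecting the cells against peroxide damage rather than for killing them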
NADPH oxidase 1 = molecular target: T2, NADPH oxidase 1 (Homo sapiens, UniProt Q9Y5S8); assay: Late-stage luminescence-based cell-based dose response assay to identify inhibitors of NADPH oxidase 1 (NOX1): Purchased analogs 2.; type: functional
T2 sequence (Q9Y5S8 whole entry): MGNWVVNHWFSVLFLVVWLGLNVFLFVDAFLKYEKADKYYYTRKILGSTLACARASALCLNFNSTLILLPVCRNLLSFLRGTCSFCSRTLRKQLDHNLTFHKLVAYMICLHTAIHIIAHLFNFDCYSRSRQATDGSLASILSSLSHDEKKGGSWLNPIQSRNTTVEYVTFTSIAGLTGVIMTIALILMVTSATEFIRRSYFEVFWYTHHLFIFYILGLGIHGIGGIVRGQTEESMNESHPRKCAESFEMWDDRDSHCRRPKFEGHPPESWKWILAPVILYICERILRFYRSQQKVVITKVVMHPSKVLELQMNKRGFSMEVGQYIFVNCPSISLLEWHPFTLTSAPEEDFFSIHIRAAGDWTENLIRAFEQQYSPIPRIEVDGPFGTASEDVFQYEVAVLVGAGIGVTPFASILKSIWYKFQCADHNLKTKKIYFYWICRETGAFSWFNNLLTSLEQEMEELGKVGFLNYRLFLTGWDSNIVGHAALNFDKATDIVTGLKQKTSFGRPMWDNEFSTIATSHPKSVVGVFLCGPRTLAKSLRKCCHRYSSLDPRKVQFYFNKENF

Sequence of 5-hydroxytryptamine receptor 1A (P08908 whole entry): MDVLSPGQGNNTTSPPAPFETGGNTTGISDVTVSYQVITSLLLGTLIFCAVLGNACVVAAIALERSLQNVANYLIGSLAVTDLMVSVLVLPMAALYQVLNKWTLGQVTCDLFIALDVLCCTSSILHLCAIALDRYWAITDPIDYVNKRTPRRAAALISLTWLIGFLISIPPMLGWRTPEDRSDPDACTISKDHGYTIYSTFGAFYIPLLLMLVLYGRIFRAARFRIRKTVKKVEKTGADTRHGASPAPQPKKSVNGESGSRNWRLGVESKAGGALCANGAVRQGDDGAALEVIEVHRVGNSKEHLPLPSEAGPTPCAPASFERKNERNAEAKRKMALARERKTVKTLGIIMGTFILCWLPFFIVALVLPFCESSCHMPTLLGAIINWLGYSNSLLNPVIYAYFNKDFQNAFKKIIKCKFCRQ
Sequence of Peroxisome proliferator-activated receptor gamma/Nuclear receptor corepressor 2 (P37231 whole entry): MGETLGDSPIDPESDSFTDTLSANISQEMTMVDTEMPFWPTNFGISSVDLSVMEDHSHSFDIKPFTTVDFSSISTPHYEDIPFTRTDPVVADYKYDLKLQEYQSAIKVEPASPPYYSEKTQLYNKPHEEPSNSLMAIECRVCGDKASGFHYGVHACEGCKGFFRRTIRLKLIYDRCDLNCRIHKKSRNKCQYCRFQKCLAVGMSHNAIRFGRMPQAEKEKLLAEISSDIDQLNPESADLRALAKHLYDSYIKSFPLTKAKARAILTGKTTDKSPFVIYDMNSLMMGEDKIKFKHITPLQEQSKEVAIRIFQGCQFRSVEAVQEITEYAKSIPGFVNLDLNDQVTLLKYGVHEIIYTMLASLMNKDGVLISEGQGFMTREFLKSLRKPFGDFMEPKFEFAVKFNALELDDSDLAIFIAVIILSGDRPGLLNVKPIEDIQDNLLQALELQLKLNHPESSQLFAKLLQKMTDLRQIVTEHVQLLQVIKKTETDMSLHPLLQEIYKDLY
Sequence of Peroxisome proliferator-activated receptor gamma/Nuclear receptor corepressor 2 (Q9Y618 whole entry): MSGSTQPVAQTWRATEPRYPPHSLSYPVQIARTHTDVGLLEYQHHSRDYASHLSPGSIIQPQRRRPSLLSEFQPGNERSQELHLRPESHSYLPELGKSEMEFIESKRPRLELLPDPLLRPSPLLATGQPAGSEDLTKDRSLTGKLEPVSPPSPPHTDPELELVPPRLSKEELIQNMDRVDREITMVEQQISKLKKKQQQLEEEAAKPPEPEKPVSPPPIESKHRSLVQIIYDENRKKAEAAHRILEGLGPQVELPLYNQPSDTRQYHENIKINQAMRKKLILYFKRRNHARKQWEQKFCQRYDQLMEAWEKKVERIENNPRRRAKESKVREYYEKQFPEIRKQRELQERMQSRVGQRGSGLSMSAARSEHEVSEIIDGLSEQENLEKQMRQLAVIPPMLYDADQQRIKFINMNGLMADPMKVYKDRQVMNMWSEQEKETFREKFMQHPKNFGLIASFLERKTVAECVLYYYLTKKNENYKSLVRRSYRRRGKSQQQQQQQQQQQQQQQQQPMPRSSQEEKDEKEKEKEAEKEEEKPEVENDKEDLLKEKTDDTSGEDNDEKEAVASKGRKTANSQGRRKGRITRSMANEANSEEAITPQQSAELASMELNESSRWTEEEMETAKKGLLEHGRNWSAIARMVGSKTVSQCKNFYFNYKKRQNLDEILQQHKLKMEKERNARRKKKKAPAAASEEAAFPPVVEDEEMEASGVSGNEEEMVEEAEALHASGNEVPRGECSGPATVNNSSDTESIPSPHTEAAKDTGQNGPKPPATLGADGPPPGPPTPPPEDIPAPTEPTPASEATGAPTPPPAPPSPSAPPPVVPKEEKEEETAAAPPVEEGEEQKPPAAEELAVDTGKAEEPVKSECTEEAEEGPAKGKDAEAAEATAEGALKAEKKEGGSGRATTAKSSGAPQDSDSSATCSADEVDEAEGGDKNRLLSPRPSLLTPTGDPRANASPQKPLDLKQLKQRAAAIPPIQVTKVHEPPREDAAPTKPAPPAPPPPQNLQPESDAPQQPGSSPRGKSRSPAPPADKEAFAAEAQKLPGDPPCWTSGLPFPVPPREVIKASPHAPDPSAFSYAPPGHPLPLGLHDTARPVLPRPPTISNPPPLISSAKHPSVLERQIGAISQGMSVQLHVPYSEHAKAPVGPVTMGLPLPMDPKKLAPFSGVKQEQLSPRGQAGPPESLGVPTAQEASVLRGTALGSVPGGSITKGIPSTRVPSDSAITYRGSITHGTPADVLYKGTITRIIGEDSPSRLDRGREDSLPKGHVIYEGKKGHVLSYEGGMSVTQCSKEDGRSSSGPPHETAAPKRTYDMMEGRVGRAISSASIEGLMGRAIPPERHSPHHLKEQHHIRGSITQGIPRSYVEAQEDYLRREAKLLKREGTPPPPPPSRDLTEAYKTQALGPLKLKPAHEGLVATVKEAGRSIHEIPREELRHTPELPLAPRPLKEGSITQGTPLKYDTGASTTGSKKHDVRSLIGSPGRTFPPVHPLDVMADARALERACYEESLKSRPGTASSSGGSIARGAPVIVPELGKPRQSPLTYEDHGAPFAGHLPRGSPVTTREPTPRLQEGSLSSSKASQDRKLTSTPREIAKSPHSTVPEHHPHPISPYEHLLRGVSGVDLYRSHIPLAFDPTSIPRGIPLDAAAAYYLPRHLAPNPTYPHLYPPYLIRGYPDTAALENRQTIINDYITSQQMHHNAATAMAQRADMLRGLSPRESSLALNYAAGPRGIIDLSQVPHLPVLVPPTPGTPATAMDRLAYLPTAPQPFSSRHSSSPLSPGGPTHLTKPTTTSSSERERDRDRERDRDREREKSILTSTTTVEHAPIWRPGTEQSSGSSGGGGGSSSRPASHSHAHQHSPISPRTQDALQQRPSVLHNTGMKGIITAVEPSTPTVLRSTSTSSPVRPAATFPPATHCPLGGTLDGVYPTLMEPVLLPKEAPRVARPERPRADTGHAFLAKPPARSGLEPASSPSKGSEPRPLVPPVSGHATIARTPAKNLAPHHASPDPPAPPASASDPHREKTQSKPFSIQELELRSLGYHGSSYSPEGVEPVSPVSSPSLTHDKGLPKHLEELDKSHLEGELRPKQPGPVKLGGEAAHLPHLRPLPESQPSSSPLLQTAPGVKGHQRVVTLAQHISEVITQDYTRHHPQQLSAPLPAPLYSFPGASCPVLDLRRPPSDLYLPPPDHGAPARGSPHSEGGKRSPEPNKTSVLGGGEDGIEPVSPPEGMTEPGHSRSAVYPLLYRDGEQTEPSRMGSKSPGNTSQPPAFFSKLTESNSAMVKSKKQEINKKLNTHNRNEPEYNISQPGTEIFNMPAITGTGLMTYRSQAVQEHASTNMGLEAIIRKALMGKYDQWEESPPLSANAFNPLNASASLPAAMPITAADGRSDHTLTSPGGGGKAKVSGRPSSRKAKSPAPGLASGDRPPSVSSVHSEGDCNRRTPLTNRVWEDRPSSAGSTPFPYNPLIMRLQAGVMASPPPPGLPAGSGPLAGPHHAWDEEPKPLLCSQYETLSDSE
Sequence of Photoreceptor-specific nuclear receptor (Q9Y5X4 whole entry): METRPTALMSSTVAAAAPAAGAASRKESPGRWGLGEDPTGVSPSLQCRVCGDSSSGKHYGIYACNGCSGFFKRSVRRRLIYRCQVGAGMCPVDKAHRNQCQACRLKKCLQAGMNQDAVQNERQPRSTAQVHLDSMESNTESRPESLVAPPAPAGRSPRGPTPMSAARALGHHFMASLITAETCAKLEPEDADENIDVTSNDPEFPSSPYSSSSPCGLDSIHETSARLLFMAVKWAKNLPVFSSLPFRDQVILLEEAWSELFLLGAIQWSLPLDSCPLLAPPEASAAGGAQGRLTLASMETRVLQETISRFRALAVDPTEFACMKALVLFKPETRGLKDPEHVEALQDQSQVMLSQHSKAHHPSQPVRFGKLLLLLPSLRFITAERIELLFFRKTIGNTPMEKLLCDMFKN
Sequence of Polyadenylate-binding protein 1 (P11940 whole entry, the tested form may be a part): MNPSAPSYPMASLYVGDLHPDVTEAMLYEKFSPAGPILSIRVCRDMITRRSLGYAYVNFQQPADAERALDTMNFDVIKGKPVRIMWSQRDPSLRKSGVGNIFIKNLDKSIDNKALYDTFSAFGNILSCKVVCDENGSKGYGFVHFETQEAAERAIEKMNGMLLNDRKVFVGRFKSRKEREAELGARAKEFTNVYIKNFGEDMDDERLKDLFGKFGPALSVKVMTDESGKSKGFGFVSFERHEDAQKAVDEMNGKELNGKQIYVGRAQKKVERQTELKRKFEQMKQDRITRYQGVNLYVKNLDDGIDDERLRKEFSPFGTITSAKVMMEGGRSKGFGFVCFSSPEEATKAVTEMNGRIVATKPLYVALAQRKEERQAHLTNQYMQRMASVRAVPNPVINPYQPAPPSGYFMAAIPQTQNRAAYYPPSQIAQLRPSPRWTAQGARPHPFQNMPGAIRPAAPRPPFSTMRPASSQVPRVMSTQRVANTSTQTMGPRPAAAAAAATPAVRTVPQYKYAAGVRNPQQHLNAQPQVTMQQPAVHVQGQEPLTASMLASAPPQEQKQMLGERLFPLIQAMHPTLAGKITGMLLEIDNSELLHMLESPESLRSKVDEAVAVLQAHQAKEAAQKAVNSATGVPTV
Sequence of Genome polyprotein (Q2Q167 whole entry): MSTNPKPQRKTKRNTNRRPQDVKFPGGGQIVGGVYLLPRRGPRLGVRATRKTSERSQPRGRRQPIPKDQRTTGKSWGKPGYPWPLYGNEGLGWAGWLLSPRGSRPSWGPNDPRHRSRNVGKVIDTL

For `C[N+]1=C2CCCCCN2C(O)(c2ccccc2)C1` (stereo unspecified), which IC50 [1] is on record?
Its IC50 is 75.1 µM (active).

What about the EC50 [2] of the same molecule?
Its EC50 is 13.8 µM (not active).

And the IC50 [3]?
Its IC50 is 3.25 µM (active).

What about the IC50 [4] of the same molecule?
The IC50 was 7.03 µM (active).

For `Clc1ccc(CSc2nc[nH]n2)cc1`, which IC50 [5] is on record?
The IC50 was > 100 µM (active).

For `Cc1cccc2c1NC(=O)/C2=C1\Nc2ccc(Br)cc2C1=O`, which IC50 (Danio rerio) is on record?
The IC50 was 0.52 µM (not active).

For `COc1ccc(-c2ccc(SCC(=O)Nc3nccs3)nn2)cc1OC`, which IC50 [6] is on record?
Its IC50 is 6.57 µM (active).

What about the IC50 [7] of the same molecule?
The IC50 was 7.04 µM (active).

Which results are given for `COc1ccc2oc(C(=O)Nc3ccc(N4CCOCC4)cc3)c(C)c2c1`?
IC50 (Genome polyprotein): > 49.8 µM (not active); IC50 (H9c2): > 79 µM (inactive)

With `COc1cc(/C=N/Nc2c(F)c(F)nc(F)c2F)cc(OC)c1O` as the molecule, how does the IC50 (NADPH oxidase 1) read?
Its IC50 is 2.94 µM (active).
